Test systems include A498 renal; A549 NSCLC; OVCAR-4 ovarian; OVCAR-5 ovarian; ACHN renal; SW-620 colon; OVCAR-3 ovarian; EKVX NSCLC; KM12 colon.
Test in all cases: NCI-60 cell line screen, 48 h

Drawing on PubChem BioAssay (NCI), this text covers TGI and GI50 for 23 compounds.

“And” between values parts separate entries of the source, which are not always exact repeats. Equal entries are not always repeated.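 Growth conditions: 96-well plates. Treatment: test compound, 48 hours, 5 concentrations. Analysis: linear interpolation between bracketing concentrations; unreached endpoints set to highest concentration. GI50 = concentration required for 50% inhibition of growth. TGI marks complete inhibition of growth.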

Take `COC1=C2C[C@@H](C)C[C@@H](OC)[C@@H](O)[C@H](C)/C=C(\C)[C@@H](OC(N)=O)[C@H](OC)/C=C\C=C(/C)C(=O)NC(=CC1=O)C2=O`: the TGI with A498 renal is 17.8 µM and 2.37 µM.
Turning to `COc1ccc(C(=O)C(C(=O)C(=O)NC2C3CC4CC(C3)CC2C4)c2ccc(OC)cc2)cc1` (centres undefined), the TGI with A549 NSCLC, with OVCAR-4 ovarian, in the experiment on OVCAR-5 ovarian, in the experiment with A498 renal, with ACHN renal and in the experiment on SW-620 colon was more than 100 µM in each case. The TGI in the experiment with OVCAR-3 ovarian, in the experiment with EKVX NSCLC and in the experiment on KM12 colon was more than 100 µM each time.
As to `CCCCCCCCCCCCCCCCCC(=O)OCC(COC1OC(CS(=O)(=O)O)C(O)C(O)C1O)OC(=O)CCCCCCCCCCCCCCCCC` (centres undefined), the TGI in the experiment with A549 NSCLC, in the experiment with OVCAR-4 ovarian, in the experiment on OVCAR-5 ovarian, in the experiment with A498 renal, with ACHN renal and in the experiment with SW-620 colon was more than 100 µM throughout. Also, the TGI in the experiment with OVCAR-3 ovarian, in the experiment with EKVX NSCLC and in the experiment on KM12 colon was more than 100 µM throughout.
As to `CCC1CC(C)=CCN1S(=O)(=O)c1ccc(C)cc1` (centres undefined), the TGI with A549 NSCLC was more than 100 µM; in the experiment on OVCAR-4 ovarian, more than 100 µM; in the experiment on OVCAR-5 ovarian it was more than 100 µM; in the experiment on A498 renal, more than 100 µM; with ACHN renal, more than 100 µM; in the experiment on OVCAR-3 ovarian, 44.9 µM. Besides, the TGI in the experiment on EKVX NSCLC was more than 100 µM; in the experiment on KM12 colon, 70.8 µM.
As to `CN(C)C1=NC2=S(SC(Nc3ccccc3)=N2)S1` (centres undefined), the TGI was 47.2 µM in the experiment with A549 NSCLC; more than 100 µM in the experiment with OVCAR-4 ovarian; more than 100 µM in the experiment with OVCAR-5 ovarian; 46.1 µM in the experiment on A498 renal; more than 100 µM in the experiment on ACHN renal; more than 100 µM in the experiment with SW-620 colon. Also, the TGI in the experiment on EKVX NSCLC was 38.5 µM; with KM12 colon, more than 100 µM.
For `NC(=O)Nc1c([N+](=O)[O-])cc(C(F)(F)F)cc1[N+](=O)[O-]`, the TGI in the experiment on A549 NSCLC, in the experiment with OVCAR-4 ovarian, in the experiment on OVCAR-5 ovarian, with A498 renal, with ACHN renal and with SW-620 colon was more than 100 µM in each case. The TGI in the experiment with OVCAR-3 ovarian is 82.5 µM; with EKVX NSCLC, more than 100 µM; with KM12 colon, more than 100 µM.
For the compound `O=C(c1nc2ccc(Cl)cc2[nH]c1=O)C(O)c1ccc2c(c1)OCO2` (centres undefined), the TGI in the experiment on A549 NSCLC, in the experiment on OVCAR-4 ovarian, in the experiment on OVCAR-5 ovarian, in the experiment on A498 renal, with ACHN renal and with SW-620 colon was more than 100 µM each time. For the same compound, the TGI with EKVX NSCLC and in the experiment with KM12 colon was more than 100 µM in each case.
Turning to `CCOC(=O)C(=O)Nc1c(C)cccc1C(C)C`, the TGI with A549 NSCLC, with OVCAR-4 ovarian, in the experiment with OVCAR-5 ovarian, in the experiment on A498 renal, with ACHN renal and in the experiment with SW-620 colon was more than 100 µM throughout. For the same compound, the TGI in the experiment on OVCAR-3 ovarian, with EKVX NSCLC and with KM12 colon was more than 100 µM in each case.
Take `COc1ccc(C(=O)CC(=O)C(=O)Nc2ccc(C)c(C)c2)cc1`: the TGI in the experiment with A549 NSCLC was more than 100 µM; in the experiment with OVCAR-4 ovarian, more than 100 µM; in the experiment on OVCAR-5 ovarian, more than 93.7 µM; in the experiment with A498 renal, more than 100 µM; in the experiment on ACHN renal, more than 100 µM; in the experiment on SW-620 colon, more than 49.2 µM. Besides, the TGI in the experiment on OVCAR-3 ovarian, with EKVX NSCLC and in the experiment with KM12 colon was more than 100 µM in each case.
For `CC1=NC(C(C)C)C(=O)O1` (centres undefined), the TGI in the experiment with OVCAR-4 ovarian is more than 100 µM; in the experiment with OVCAR-5 ovarian it was more than 100 µM; in the experiment on A498 renal it was more than 100 µM; in the experiment on ACHN renal, more than 100 µM; with SW-620 colon, 25.8 µM; in the experiment with OVCAR-3 ovarian, more than 100 µM. The TGI in the experiment with EKVX NSCLC and in the experiment on KM12 colon was more than 100 µM throughout.
As to `O=C1OC(c2ccccc2)=N/C1=C\c1cc(Cl)ccc1Cl`, the TGI in the experiment with A549 NSCLC, in the experiment with OVCAR-4 ovarian, with OVCAR-5 ovarian, in the experiment on A498 renal, with ACHN renal and with SW-620 colon was more than 100 µM throughout. Besides, the TGI with EKVX NSCLC and with KM12 colon was more than 100 µM in each case.
Take `CCOC(=O)NC(=O)c1cn(CCCOC(=O)NCCCCCCNC(=O)OCCCn2cc(C(=O)NC(=O)OCC)c(=O)[nH]c2=O)c(=O)[nH]c1=O`: the TGI in the experiment with A549 NSCLC is more than 100 µM; in the experiment with OVCAR-4 ovarian, 29.6 µM; in the experiment with A498 renal it was 44.1 µM; in the experiment with ACHN renal, 32.9 µM; in the experiment on SW-620 colon it was 93.6 µM; in the experiment on OVCAR-3 ovarian, 42.4 µM. Further, the TGI in the experiment on EKVX NSCLC was more than 100 µM.
Regarding `CCCc1nc(NC#N)nc(C(=O)NC23CC4CC(CC(C4)C2)C3)c1C`, the TGI with A549 NSCLC, in the experiment on OVCAR-4 ovarian, in the experiment on OVCAR-5 ovarian, in the experiment with A498 renal, in the experiment with ACHN renal and in the experiment with SW-620 colon was more than 100 µM throughout. The TGI in the experiment with OVCAR-3 ovarian, in the experiment on EKVX NSCLC and with KM12 colon was more than 100 µM throughout.
Take `O=NN/C(=C1\Nc2ccc([N+](=O)[O-])cc2NC1=O)C(O)c1ccc([N+](=O)[O-])cc1` (centres undefined): the TGI in the experiment on A549 NSCLC, with OVCAR-4 ovarian, with OVCAR-5 ovarian, in the experiment on ACHN renal, with SW-620 colon and in the experiment on OVCAR-3 ovarian was more than 100 µM in each case. The TGI in the experiment with KM12 colon is more than 100 µM.
For `CSc1nc(C)c(Br)c(=O)n1C1OC(COC(C)=O)C(OC(C)=O)C(OC(C)=O)C1OC(C)=O` (centres undefined), the GI50 is > 100 µM and 28.5 µM in the experiment on A549 NSCLC; > 100 µM and 20.5 µM in the experiment on OVCAR-4 ovarian; 29.4 µM and 75.4 µM with A498 renal; > 100 µM and 35.4 µM in the experiment with ACHN renal; > 100 µM and 42.9 µM in the experiment on EKVX NSCLC. Moreover, the TGI in the experiment with A549 NSCLC was more than 100 µM; with OVCAR-4 ovarian, > 100 µM and 52.2 µM; in the experiment with OVCAR-5 ovarian, more than 100 µM; with A498 renal, more than 100 µM; in the experiment on ACHN renal, more than 100 µM; with SW-620 colon it was more than 100 µM. Moreover, the TGI in the experiment with OVCAR-3 ovarian, in the experiment with EKVX NSCLC and with KM12 colon was more than 100 µM each time.
Take `COC(=O)CS(=O)c1ccccc1` (centres undefined): the TGI in the experiment with A549 NSCLC, in the experiment on OVCAR-4 ovarian, with OVCAR-5 ovarian, with A498 renal, in the experiment with ACHN renal and in the experiment on SW-620 colon was more than 100 µM in each case. For the same compound, the TGI with OVCAR-3 ovarian, with EKVX NSCLC and with KM12 colon was more than 100 µM in each case.
As to `CCCCCCCCCCCCCCCCCC(=O)OCC(C[As](=O)(O)O)OC(=O)CCCCCCCCCCCCCCCCC` (centres undefined), the TGI in the experiment with A549 NSCLC was more than 100 µM; with OVCAR-4 ovarian it was more than 100 µM; with OVCAR-5 ovarian, more than 100 µM; in the experiment with A498 renal, more than 100 µM; in the experiment with ACHN renal it was more than 100 µM; in the experiment on SW-620 colon, 33.8 µM. For the same compound, the TGI in the experiment with OVCAR-3 ovarian, with EKVX NSCLC and in the experiment with KM12 colon was more than 100 µM in each case.
Regarding `COC(=O)C(Cc1ccccc1)NC(=O)Cn1ccnc1[N+](=O)[O-]` (centres undefined), the TGI in the experiment on A549 NSCLC, in the experiment on OVCAR-4 ovarian, in the experiment on OVCAR-5 ovarian, in the experiment with A498 renal, with ACHN renal and in the experiment on SW-620 colon was more than 100 µM each time. Besides, the TGI with EKVX NSCLC and with KM12 colon was more than 100 µM in each case.
In the case of `COc1ccc(-c2cc(-c3cc(C)ccc3O)[nH]c(=O)n2)cc1`, the TGI with A549 NSCLC, in the experiment on OVCAR-4 ovarian, in the experiment on A498 renal, in the experiment with ACHN renal, in the experiment with SW-620 colon and with OVCAR-3 ovarian was more than 100 µM throughout. Further, the TGI with EKVX NSCLC and with KM12 colon was more than 100 µM each time.
On to `COc1ccc(NC(=O)CC(=O)N2N=C(N(CCC#N)c3cccc(C)c3)CC2c2ccccc2)cc1` (centres undefined), for which the TGI in the experiment with A549 NSCLC, in the experiment on OVCAR-4 ovarian, in the experiment with OVCAR-5 ovarian, in the experiment with ACHN renal, with SW-620 colon and in the experiment on OVCAR-3 ovarian was more than 100 µM throughout. In addition, the TGI in the experiment with EKVX NSCLC and in the experiment with KM12 colon was more than 100 µM throughout.
As to `CCOC(=O)N[C@@H]1C2CC(=O)C(O2)[C@@H]1OC` (some centres undefined), the TGI in the experiment with A549 NSCLC, in the experiment on OVCAR-4 ovarian, in the experiment on OVCAR-5 ovarian, in the experiment on ACHN renal, in the experiment with SW-620 colon and in the experiment on OVCAR-3 ovarian was more than 100 µM each time. The TGI with EKVX NSCLC and in the experiment on KM12 colon was more than 100 µM each time.
Turning to `COC1OC(COS(=O)(=O)c2ccc(C)cc2)C(O)C(OS(=O)(=O)c2ccc(C)cc2)C1OS(=O)(=O)c1ccc(C)cc1` (centres undefined), the TGI in the experiment on A549 NSCLC, in the experiment on OVCAR-4 ovarian, in the experiment on OVCAR-5 ovarian, with ACHN renal, in the experiment on SW-620 colon and in the experiment on OVCAR-3 ovarian was more than 100 µM each time. Further, the TGI in the experiment on EKVX NSCLC and in the experiment on KM12 colon was more than 100 µM throughout.
`NC(=O)CCC(NC(=O)Cc1ccccc1)C(=O)O` (centres undefined) (tested in a mixture with another compound): the TGI in the experiment with A549 NSCLC, with OVCAR-4 ovarian, with OVCAR-5 ovarian, in the experiment on A498 renal, in the experiment with SW-620 colon and in the experiment with OVCAR-3 ovarian was more than 8130 µM each time. For the same compound, the TGI in the experiment with EKVX NSCLC and in the experiment with KM12 colon was more than 8130 µM each time.
